Data: US20250332173A1, “COMPOUNDS AND METHODS FOR MODULATING NUCLEIC ACID SPLICING” (REMIX THERAPEUTICS INC., priority 2021, published 2025)
Like-named read-outs stand apart in the source and are kept apart here.

Key:
Assay type in all cases: cell-based, human
[1] = test system: HTT mRNA; assay: RT-qPCR splicing assay, HTT canonical junction (CJ) and alternative junction (AJ) mRNA; settings: Homo sapiens; for AC50: increase in HTT alternative junction (AJ) mRNA, read-out: HTT AJ AC50
Summary of the method: (§1)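 Splicing switches were read by TaqMan RT-qPCR on lysates, quantifying exon-exon junctions of the canonical and alternative-exon isoforms. Lysates came from K562 (GAPDH/GUSB reference) or A673 (PPIA reference) cells exposed 24 h to compound in 11 threefold steps from 10 uM, with DMSO ≤0.25%.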

[2] = test system: MYB mRNA; assay: RT-qPCR splicing assay, MYB canonical junction (CJ) and alternative junction (AJ) mRNA; settings: Homo sapiens; for AC50: increase in MYB alternative junction (AJ) mRNA, read-out: MYB AJ AC50
Summary of the method: as §1

[3] = test system: HTT; assay: HiBiT protein abundance assay, HTT HiBiT K562 cell line; settings: 24 hours, top dose 10 μM
Summary of the method: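 Tagged-protein abundance measured by split-NanoBiT luminescence after lysis, following 24 h compound exposure (37° C; 10 μM top, 3-fold, 10 points; DMSO ≤0.25%) of HiBiT knock-in K562 cells. Percent response vs DMSO and unmodified-cell controls; 4-parameter logistic interpolation at 50% gave IC50.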

[4] = decrease in HTT canonical junction (CJ) mRNA, RT-qPCR, read-out: HTT CJ IC50
[5] = canonical junction qPCR panel, Table 5, read-out: HTT (decrease in CJ mRNA levels, IC50)
[6] = canonical junction qPCR panel, Table 5, read-out: MYB (decrease in CJ mRNA levels, IC50)
[7] = decrease in MYB canonical junction (CJ) mRNA, RT-qPCR, read-out: MYB CJ IC50
[8] = HiBiT lytic detection, modified K562 cells, read-out: Effect on protein abundance, HTT (IC50)

Row | SMILES | IC50 [1, 4] | AC50 ([1]; RT-qPCR) | IC50 [1, 5] | IC50 [2, 6] | IC50 [2, 7] | AC50 ([2]; RT-qPCR) | IC50 [3, 8] | IC50 ([3]; HiBiT K562 cell line, read-out: Effect on protein abundance, HTT (IC50 category))
1 | Cc1cn2nc(-c3ccc4c(=O)n([C@@H]5CCN(C)C6(CC6)C5)ncc4n3)cc(C)c2n1 [Compound 1534] | < 0.1 µM | < 0.1 µM | < 0.1 µM | 0.1 to 1 µM | < 0.1 µM | 0.1 to 1 µM | < 0.1 µM | 
2 | Cc1cn2nc(-c3ccc4c(=O)n(C5CCN(CCO)C6(CC6)C5)ncc4n3)cc(C)c2n1 (stereo not drawn) [Compound 1541, 2-(2,8-dimethylimidazo[1,2-b]pyridazin-6-yl)-6-[4-(2-hydroxyethyl)-4-azaspiro[2.5]octan-7-yl]pyrido-[2,3-d]pyridazin-5-one] | 0.1 to 1 µM | < 0.1 µM | < 0.1 µM | 0.1 to 1 µM | 0.1 to 1 µM | 0.1 to 1 µM |  | < 0.1 µM
3 | Cc1cn2nc(-c3ccc4c(=O)n(C5CCN(CCF)C6(CC6)C5)ncc4n3)cc(C)c2n1 (stereo not drawn) [Compound 1542, 2-(2,8-dimethylimidazo[1,2-b]pyridazin-6-yl)-6-[4-(2-fluoroethyl)-4-azaspiro[2.5]octan-7-1]pyrido[2,3-d]pyridazin-5-one] | 0.1 to 1 µM | 0.1 to 1 µM | 0.1 to 1 µM | 1 to 10 µM | 1 to 10 µM | 1 to 10 µM | 0.1 to 1 µM | 
4 | Cc1cn2nc(-c3ccc4c(=O)n(C5CCN(CC6CC6)C6(CC6)C5)ncc4n3)cc(C)c2n1 (stereo not drawn) [Compound 1543, 6-[4-(cyclopropylmethyl)-4-azaspiro[2.5]octan-7-yl]-2-(2,8-dimethylimidazo[1,2-b]pyridazin-6-yl)pyrido[2,3-d]pyridazin-5-one] | < 0.1 µM | < 0.1 µM | < 0.1 µM | 0.1 to 1 µM | 0.1 to 1 µM | 0.1 to 1 µM | < 0.1 µM | 
5 | Cc1cn2nc(-c3ccc4c(=O)n([C@@H]5CCNC6(CCC6)C5)ncc4n3)cc(C)c2n1 [Compound 1545, 6-[(8R)-5-azaspiro[3.5]nonan-8-yl]-2-(2,8-dimethylimidazo[1,2-b]pyridazin-6-yl)pyrido[2,3-d]pyridazin-5-one] | < 0.1 µM | < 0.1 µM | < 0.1 µM | 0.1 to 1 µM | 0.1 to 1 µM | 0.1 to 1 µM | < 0.1 µM | 
6 | Cc1cn2nc(-c3ccc4c(=O)n(C5CCNC6(CCC6)C5)ncc4n3)cc(C)c2n1 (stereo not drawn) [Compound 1553] | 1 to 10 µM | 0.1 to 1 µM | 0.1 to 1 µM | 1 to 10 µM | 1 to 10 µM | 1 to 10 µM | 0.1 to 1 µM | 
7 | Cn1cc2ccc(-n3cnc4ccc(NC5CCNCC5)cc4c3=O)cc2n1 [Compound 2164] | > 10 µM | > 10 µM | > 10 µM | > 10 µM | > 10 µM | > 10 µM | > 10 µM | 
8 | Cc1cc(-c2ccc3ncn(C4CCNCC4)c(=O)c3c2)cc2cn(C)nc12 [Compound 2169] | > 10 µM | > 10 µM | > 10 µM | > 10 µM | > 10 µM | > 10 µM | > 10 µM | 
9 | Cc1cc(-c2ccc3ncn(C4CCN(C)CC4)c(=O)c3c2)cc2cn(C)nc12 [Compound 2170] | > 10 µM | > 10 µM | > 10 µM | > 10 µM | > 10 µM | > 10 µM | > 10 µM | 
10 | CN1CCC(Nc2ccc3ncn(-c4ccc5nn(C)cc5c4)c(=O)c3c2)CC1 [Compound 2171] | > 10 µM | > 10 µM | > 10 µM | > 10 µM | > 10 µM | > 10 µM | > 10 µM | 
11 | Cc1cn2cc(-n3cnc4ccc(N5CCNCC5)cc4c3=O)cc(F)c2n1 [Compound 2195] | > 10 µM | > 10 µM | > 10 µM | > 10 µM | > 10 µM | > 10 µM | > 10 µM | 
12 | Cn1cc2cc(-n3cnc4ccc(N5CCNCC5)cc4c3=O)cc(F)c2n1 [Compound 2196] | > 10 µM | > 10 µM | > 10 µM | > 10 µM | > 10 µM | > 10 µM | > 10 µM | 
13 | Cc1cn2cc(-n3cnc4ccc(N5CCN(C)CC5)cc4c3=O)cc(F)c2n1 [Compound 2197] | 1 to 10 µM | 1 to 10 µM | 1 to 10 µM | 1 to 10 µM | 1 to 10 µM | 1 to 10 µM | 1 to 10 µM | 
14 | CN(c1ccc2ncn(-c3cc(F)c4nn(C)cc4c3)c(=O)c2c1)C1CCNCC1 [Compound 2198] | > 10 µM | > 10 µM | > 10 µM | > 10 µM | > 10 µM | > 10 µM | > 10 µM | 
15 | CN1CCC(N(C)c2ccc3ncn(-c4cc(F)c5nn(C)cc5c4)c(=O)c3c2)CC1 [Compound 2199] | > 10 µM | > 10 µM | > 10 µM | > 10 µM | > 10 µM | > 10 µM | > 10 µM | 
16 | Cc1cn2cc(-n3cnc4ccc(N(C)C5CCNCC5)cc4c3=O)cc(F)c2n1 [Compound 2200] | > 10 µM | > 10 µM | > 10 µM | > 10 µM | > 10 µM | > 10 µM | > 10 µM | 
17 | Cc1cn2nc(-n3cnc4ccc(N5CCNCC5)cc4c3=O)cc(C)c2n1 [Compound 2201] | > 10 µM | > 10 µM | > 10 µM | > 10 µM | > 10 µM | > 10 µM | > 10 µM | 
18 | Cc1cn2nc(-n3cnc4ccc(N5CCN(C)CC5)cc4c3=O)cc(C)c2n1 [Compound 2202] | 1 to 10 µM | 1 to 10 µM | 1 to 10 µM | 1 to 10 µM | 1 to 10 µM | 1 to 10 µM | 1 to 10 µM | 
19 | Cc1cc(-c2ccc3c(=O)[nH]c(N4CCNCC4)nc3c2)cc2cn(C)nc12 [Compound 2211] | > 10 µM | > 10 µM | > 10 µM | > 10 µM | > 10 µM | > 10 µM | > 10 µM | 
20 | Cc1cc(-c2ccc3c(=O)[nH]c(N4CCN(C)CC4)nc3c2)cc2cn(C)nc12 [Compound 2212] | 1 to 10 µM | 1 to 10 µM | 1 to 10 µM | 1 to 10 µM | 1 to 10 µM | 1 to 10 µM | > 10 µM | 
21 | Cc1cc(-c2nc3cc(N4CCNCC4)ccc3c(=O)[nH]2)cc2cn(C)nc12 [Compound 2213] | > 10 µM | > 10 µM | > 10 µM | > 10 µM | > 10 µM | > 10 µM | > 10 µM | 
